Measurements published in ChEMBL document CHEMBL3885861, “Open TG-GATES”.

Species on record: Rattus norvegicus
Experiment: Open TG-GATES - Regimen: Single
Type: toxicity, organism-based, Sprague-Dawley
Parameters: regimen Single, gender Male, age 6 weeks
Conditions: in vivo, po, 100 mg/kg, route gavage, dose level Middle; for APTT / Bas / Eos / Fbg / Hb / Ht / Lym / MCH / MCHC / MCV / Mono / Neu / PT / Plat / RBC / Ret / WBC: tissue Blood; for KIDNEY_TOTAL: tissue Kidney; for LIVER: tissue Liver; for A/G / ALP / ALT / AST / BUN / CRE / Ca / Cl / DBIL / GLC / IP / K / LDH / Na / PL / RALB / TBIL / TC / TG / TP / gamma-GTP: tissue Plasma

Structure (SMILES): CN(CCOc1ccc(CC2SC(=O)NC2=O)cc1)c1ccccn1.O=C(O)/C=C\C(=O)O (centres undefined) [ROSIGLITAZONE MALEATE]
- TERMINAL_BW (3 h): 205.4 g
- APTT (3 h): 16.2 s
- Bas (3 h): 0%
- Eos (3 h): 1%
- Fbg (3 h): 217.8 mg/dL
- Hb (3 h): 13 g/dL
- Ht (3 h): 39.5%
- Lym (3 h): 77.2%
- MCH (3 h): 21.3 pg
- MCHC (3 h): 32.8%
- MCV (3 h): 65 fL
- Mono (3 h): 7.8%
- Neu (3 h): 14.4%
- PT (3 h): 12.2 s
- Plat (3 h): 119.4 x10_4/uL
- RBC (3 h): 607.6 x10_4/ul
- Ret (3 h): 8.6%
- WBC (3 h): 105 x10_2/uL
- KIDNEY_TOTAL (3 h): 0.8 g
- LIVER (3 h): 9.5 g
- A/G (3 h): 2.2
- ALP (3 h): 1374 IU/L
- ALT (3 h): 36.6 IU/L
- AST (3 h): 74.6 IU/L
- BUN (3 h): 13.4 mg/dL
- CRE (3 h): 0.4 mg/dL
- Ca (3 h): 11.6 mg/dL
- Cl (3 h): 104 meq/L
- DBIL (3 h): 0.014 mg/dL
- GLC (3 h): 189.2 mg/dL
- IP (3 h): 8.9 mg/dL
- K (3 h): 4.4 meq/L
- LDH (3 h): 107.8 IU/L
- Na (3 h): 139.6 meq/L
- PL (3 h): 133.2 mg/dL
- RALB (3 h): 3.6 g/dL
- TBIL (3 h): 0.046 mg/dL
- TC (3 h): 78.8 mg/dL
- TG (3 h): 75.6 mg/dL
- TP (3 h): 5.3 g/dL
- gamma-GTP (3 h): 0.8 IU/L
- TERMINAL_BW (6 h): 206.8 g
- APTT (6 h): 16.7 s
- Bas (6 h): 0%
- Eos (6 h): 1%
- Fbg (6 h): 221.8 mg/dL
- Hb (6 h): 12.4 g/dL
- Ht (6 h): 37.5%
- Lym (6 h): 67.4%
- MCH (6 h): 20.7 pg
- MCHC (6 h): 33.1%
- MCV (6 h): 62.5 fL
- Mono (6 h): 9.8%
- Neu (6 h): 22%
- PT (6 h): 12.4 s
- Plat (6 h): 124.2 x10_4/uL
- RBC (6 h): 600 x10_4/ul
- Ret (6 h): 8.9%
- WBC (6 h): 105.2 x10_2/uL
- KIDNEY_TOTAL (6 h): 0.8 g
- LIVER (6 h): 9 g
- A/G (6 h): 2.3
- ALP (6 h): 1392.2 IU/L
- ALT (6 h): 33.6 IU/L
- AST (6 h): 64 IU/L
- BUN (6 h): 10.2 mg/dL
- CRE (6 h): 0.4 mg/dL
- Ca (6 h): 11.1 mg/dL
- Cl (6 h): 104.2 meq/L
- DBIL (6 h): 0.016 mg/dL
- GLC (6 h): 179.2 mg/dL
- IP (6 h): 10 mg/dL
- K (6 h): 4.5 meq/L
- LDH (6 h): 82.2 IU/L
- Na (6 h): 138.4 meq/L
- PL (6 h): 127.8 mg/dL
- RALB (6 h): 3.6 g/dL
- TBIL (6 h): 0.042 mg/dL
- TC (6 h): 73 mg/dL
- TG (6 h): 64.2 mg/dL
- TP (6 h): 5.2 g/dL
- gamma-GTP (6 h): 1 IU/L
- TERMINAL_BW (9 h): 198.2 g
- APTT (9 h): 16.2 s
- Bas (9 h): 0%
- Eos (9 h): 1%
- Fbg (9 h): 217 mg/dL
- Hb (9 h): 12.7 g/dL
- Ht (9 h): 38.5%
- Lym (9 h): 75.6%
- MCH (9 h): 22.1 pg
- MCHC (9 h): 32.9%
- MCV (9 h): 67.1 fL
- Mono (9 h): 4.8%
- Neu (9 h): 19%
- PT (9 h): 12.3 s
- Plat (9 h): 118.4 x10_4/uL
- RBC (9 h): 574.2 x10_4/ul
- Ret (9 h): 8.9%
- WBC (9 h): 85 x10_2/uL
- KIDNEY_TOTAL (9 h): 0.8 g
- LIVER (9 h): 8.3 g
- A/G (9 h): 2.5
- ALP (9 h): 1125.2 IU/L
- ALT (9 h): 28 IU/L
- AST (9 h): 62 IU/L
- BUN (9 h): 11.2 mg/dL
- CRE (9 h): 0.4 mg/dL
- Ca (9 h): 11.7 mg/dL
- Cl (9 h): 103.8 meq/L
- DBIL (9 h): 0.014 mg/dL
- GLC (9 h): 190.6 mg/dL
- IP (9 h): 11.3 mg/dL
- K (9 h): 4.3 meq/L
- LDH (9 h): 120.2 IU/L
- Na (9 h): 140.4 meq/L
- PL (9 h): 122.2 mg/dL
- RALB (9 h): 3.9 g/dL
- TBIL (9 h): 0.046 mg/dL
- TC (9 h): 70.2 mg/dL
- TG (9 h): 49.6 mg/dL
- TP (9 h): 5.5 g/dL
- gamma-GTP (9 h): 0.6 IU/L
- TERMINAL_BW (24 h): 224.2 g
- APTT (24 h): 16.3 s
- Bas (24 h): 0%
- Eos (24 h): 0.8%
- Fbg (24 h): 213.2 mg/dL
- Hb (24 h): 12.4 g/dL
- Ht (24 h): 38%
- Lym (24 h): 68.8%
- MCH (24 h): 20.9 pg
- MCHC (24 h): 32.7%
- MCV (24 h): 63.8 fL
- Mono (24 h): 9.4%
- Neu (24 h): 21.2%
- PT (24 h): 11.5 s
- Plat (24 h): 120.6 x10_4/uL
- RBC (24 h): 596.2 x10_4/ul
- Ret (24 h): 7.7%
- WBC (24 h): 74.8 x10_2/uL
- KIDNEY_TOTAL (24 h): 0.6 g
- LIVER (24 h): 11.2 g
- A/G (24 h): 2.7
- ALP (24 h): 1341.6 IU/L
- ALT (24 h): 40.2 IU/L
- AST (24 h): 71.2 IU/L
- BUN (24 h): 16.6 mg/dL
- CRE (24 h): 0.4 mg/dL
- Ca (24 h): 11.3 mg/dL
- Cl (24 h): 104.4 meq/L
- DBIL (24 h): 0.016 mg/dL
- GLC (24 h): 187.6 mg/dL
- IP (24 h): 7.8 mg/dL
- K (24 h): 4.5 meq/L
- LDH (24 h): 123.8 IU/L
- Na (24 h): 140 meq/L
- PL (24 h): 161.6 mg/dL
- RALB (24 h): 3.8 g/dL
- TBIL (24 h): 0.032 mg/dL
- TC (24 h): 90.6 mg/dL
- TG (24 h): 127.2 mg/dL
- TP (24 h): 5.3 g/dL
- gamma-GTP (24 h): 1 IU/L
